Tests used:
human TRPV3 = target: T1, human TRPV3 (Homo sapiens, UniProt Q8NET8); assay: In vitro antagonism of recombinant human TRPV3 activation (FLIPR Tetra calcium assay, 2-APB as agonist); format: cell-based; settings: HEK293 cells stably expressing human TRPV3; 2-APB 80 μM; range class; read-out: IC50 (reported range)
T1 construct: expressed in transfected cells
T1 sequence (Q8NET8 1-790): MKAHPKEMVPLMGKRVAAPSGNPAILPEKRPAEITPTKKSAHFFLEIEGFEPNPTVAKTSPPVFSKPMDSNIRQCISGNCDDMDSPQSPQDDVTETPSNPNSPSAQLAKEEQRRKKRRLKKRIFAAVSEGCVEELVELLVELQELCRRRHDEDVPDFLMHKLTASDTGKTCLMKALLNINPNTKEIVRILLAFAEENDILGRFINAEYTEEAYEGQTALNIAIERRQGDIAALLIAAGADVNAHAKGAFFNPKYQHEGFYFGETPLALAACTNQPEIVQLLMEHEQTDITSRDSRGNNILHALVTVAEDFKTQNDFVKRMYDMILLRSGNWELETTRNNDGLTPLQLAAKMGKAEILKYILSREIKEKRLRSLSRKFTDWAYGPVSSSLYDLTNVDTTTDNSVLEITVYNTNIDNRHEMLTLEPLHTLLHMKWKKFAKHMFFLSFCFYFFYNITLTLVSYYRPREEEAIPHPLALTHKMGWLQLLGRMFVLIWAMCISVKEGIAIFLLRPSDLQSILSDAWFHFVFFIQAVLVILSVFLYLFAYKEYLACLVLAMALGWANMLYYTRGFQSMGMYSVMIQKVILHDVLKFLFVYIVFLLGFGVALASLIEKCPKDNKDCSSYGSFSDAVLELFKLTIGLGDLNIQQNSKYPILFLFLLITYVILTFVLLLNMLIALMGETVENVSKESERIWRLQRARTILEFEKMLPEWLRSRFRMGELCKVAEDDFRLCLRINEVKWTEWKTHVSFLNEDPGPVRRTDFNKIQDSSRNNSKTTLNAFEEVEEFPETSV
Description: Test compounds were evaluated for ability to antagonize the activation of recombinant human TRPV3 using FLIPR® Tetra cellular screening. Specifically, on the day prior to the experiment recombinant HEK293 cells that stably express human TRPV3 were removed from tissue culture flasks and plated in growth medium at 20,000 cells/well into Poly-d-lysine coated black/clear 384-well Plate (Corning, 3845) using a Multidrop® dispenser (ThermoScientific, Waltham, Mass.). Prior to the start of the assay, the medium was removed by aspiration, and cells were loaded with 30 μL no-wash FLIPR® Calcium-4 dye (λEX=470-495 nm, λEM=515-575 nm; Molecular Devices, Sunnyvale, Calif.). The cells were then incubated for 90-120 minutes in the dark prior to addition of the test compound.
A double-addition protocol was used. The test compound (i.e., the TRPV3 antagonist) was added at the 10 second time point, followed by the addition of a TRPV3 agonist three minutes later. Each test compound evaluated was first dissolved in DMSO to prepare a 10 mM stock solution. A solution (5×) of the test compound was then prepared in DPBS (Dulbecco's Phosphate Buffered Saline) and 10 μL of that solution was added to the cells at a delivery rate of 40 μL/sec. The TRPV3 agonist used to activate human TRPV3 expressed by the […] was 2-aminoethoxy-diphenyl borate (2-APB; Tocris Cookson, Ellisville, Mo.) at 80 μM. Final assay volume was 50 μL. Total length of an experimental run was 10 minutes.
Changes in fluorescence were measured over time using the FLIPR® instrument. The intensity of the fluorescence was captured and digitally transferred to an interfaced computer. The maximum response minus minimum response was calculated and expressed as the percentage of the maximum 2-APB response in the absence of antagonist. The concentration of 2-APB corresponds to its EC80.
Table 1 reports the IC50 values measured for the test compounds as human TRPV3 antagonists. […] Actual measured values are shown parenthetically after the reported range. In most cases, the values reported are average values from at least two runs (i.e., n≧2).

[1] = In vitro human microsomal stability assay; format: in vitro ADME; settings: for HUMAN MICROSOMAL STABILITY (% REMAINING AFTER 30 MINUTES): 0.5 h, 0.5 μM, pH 7.4
Summary of the method: (§1)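 Rat (Sprague-Dawley) and human liver microsomes were incubated with test compound and NADPH at 37 °C. Time-zero samples also received NADPH.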

[2] = In vitro rat microsomal stability assay; format: in vitro ADME, rat (Sprague-Dawley); settings: for RAT MICROSOMAL STABILITY (% REMAINING AFTER 30 MINUTES): Sprague-Dawley, 0.5 h, 0.5 μM, pH 7.4
Summary of the method: as §1

[3] = 0.5 μM substrate, 0.25 mg/mL microsomal protein, pH 7.4, 37° C., NADPH, 30 minutes

Compound	IC50 (human TRPV3) [nM]	HUMAN MICROSOMAL STABILITY (% REMAINING AFTER 30 MINUTES) [1] [%]	RAT MICROSOMAL STABILITY (% REMAINING AFTER 30 MINUTES) [2] [%]	HUMAN […] (% REMAINING AFTER 30 MINUTES) [1, 3] [%]	RAT […] (% REMAINING AFTER 30 MINUTES) [2, 3] [%]
CC1(O)CC(c2ccc(C(F)(F)F)cc2)([C@H](O)c2ccccn2)C1 (stereo in doubt) [Example 233, trans-3-[(S)-hydroxy(pyridin-2-yl)methyl]-1-methyl-3-[4-(trifluoromethyl)-phenyl]cyclobutanol]	5100 to 20000			>85	67
OC(c1ccccn1)C1(c2ccccc2F)CCC1 (stereo not drawn) [Example 1, [1-(2-fluorophenyl)cyclobutyl](pyridin-2-yl)methanol]	1100 to 5000	0.38	0.48		
OC(c1ccccn1)C1(c2cccc(F)c2)CCC1 (stereo not drawn) [Example 2, [1-(3-fluorophenyl)cyclobutyl](pyridin-2-yl)methanol]	50 to 500	17	0.64		
OC(c1ccccn1)C1(c2cccc(C(F)(F)F)c2)CCC1 (stereo not drawn) [Example 6, pyridin-2-yl{1-[3-(trifluoromethyl)phenyl]cyclobutyl}methanol]	50 to 500	1.2	2.3		
Cc1cccc(C2(C(O)c3ccccn3)CCC2)c1 (stereo not drawn) [Example 8, [1-(3-methylphenyl)cyclobutyl](pyridin-2-yl)methanol]	50 to 500	0.13	0.73		
OC(c1ccccn1)C1(c2ccc(OC(F)(F)F)cc2)CCC1 (stereo not drawn) [Example 12, pyridin-2-yl{1-[4-(trifluoromethoxy)phenyl]cyclobutyl}methanol]	50 to 500	24	11		
OC(c1ccccn1)C1(c2cc(C(F)(F)F)cc(C(F)(F)F)c2)CCC1 (stereo not drawn) [Example 13, {1-[3,5-bis(trifluoromethyl)phenyl]cyclobutyl}(pyridin-2-yl)methanol]	501 to 1000	7.4	19		
OC(c1ccccn1)C1(c2ccc(F)c(C(F)(F)F)c2)CCC1 (stereo not drawn) [Example 15, {1-[4-fluoro-3-(trifluoromethyl)phenyl]cyclobutyl}(pyridin-2-yl)methanol]	50 to 500	5.6	1.2		
OC(c1ccccn1)C1(c2ccc(C(F)(F)F)c(F)c2)CCC1 (stereo not drawn) [Example 17]	1100 to 5000	21	13		
OC(c1ccccn1)C1(c2cccc(Oc3ccccc3)c2)CCC1 (stereo not drawn) [Example 23, [1-(3-phenoxyphenyl)cyclobutyl](pyridin-2-yl)methanol]	501 to 1000	0.12	0.69		
O[C@H](c1ccccn1)C1(c2ccc(C(F)(F)F)cc2F)CCC1 [Example 27, (S)-{1-[2-fluoro-4-(trifluoromethyl)phenyl]cyclobutyl}(pyridin-2-yl)-methanol]	1100 to 5000	13	15		
O[C@H](c1ccccn1)C1(c2ccc(C(F)(F)F)cc2)CCC1 [Example 28, (S)-pyridin-2-yl{1-[4-(trifluoromethyl)phenyl]cyclobutyl}methanol]	50 to 500	12	13		
Cc1cccnc1[C@@H](O)C1(c2ccc(Cl)c(Cl)c2)CCC1 [Example 30, (S)-[1-(3,4-dichlorophenyl)cyclobutyl](3-methylpyridin-2-yl)methanol]	1100 to 5000	1.5	0.98		

Now from value to compound, other results behind:

IC50 (human TRPV3) [nM]	HUMAN MICROSOMAL STABILITY (% REMAINING AFTER 30 MINUTES) [1] [%]	RAT MICROSOMAL STABILITY (% REMAINING AFTER 30 MINUTES) [2] [%]	Compound	HUMAN […] (% REMAINING AFTER 30 MINUTES) [1, 3] [%]	RAT […] (% REMAINING AFTER 30 MINUTES) [2, 3] [%]
501 to 1000	28	3.8	OC(c1ccccn1)C1(c2ccc(F)cc2)CCC1 (stereo not drawn) [Example 3, [1-(4-fluorophenyl)cyclobutyl](pyridin-2-yl)methanol]		
50 to 500	19	4.2	OC(c1ccccn1)C1(c2ccc(F)c(F)c2)CCC1 (stereo not drawn) [Example 4, [1-(3,4-difluorophenyl)cyclobutyl](pyridin-2-yl)methanol]		
5100 to 20000	0.27	0.06	OC(c1ccccn1)C1(c2ccccc2C(F)(F)F)CCC1 (stereo not drawn) [Example 5, pyridin-2-yl{1-[2-(trifluoromethyl)phenyl]cyclobutyl}methanol]		
5100 to 20000	0.15	0.32	Cc1ccccc1C1(C(O)c2ccccn2)CCC1 (stereo not drawn) [Example 7, [1-(2-methylphenyl)cyclobutyl](pyridin-2-yl)methanol]		
1100 to 5000	0.12	0.18	Cc1ccc(C2(C(O)c3ccccn3)CCC2)cc1 (stereo not drawn) [Example 9, [1-(4-methylphenyl)cyclobutyl](pyridin-2-yl)methanol]		
1100 to 5000	0.42	0.62	OC(c1ccccn1)C1(c2ccccc2OC(F)(F)F)CCC1 (stereo not drawn) [Example 10, pyridin-2-yl{1-[2-(trifluoromethoxy)phenyl]cyclobutyl}methanol]		
50 to 500	0.72	0.80	OC(c1ccccn1)C1(c2cccc(OC(F)(F)F)c2)CCC1 (stereo not drawn) [Example 11, pyridin-2-yl{1-[3-(trifluoromethoxy)phenyl]cyclobutyl}methanol]		
1100 to 5000	20	17	OC(c1ccccn1)C1(c2ccc(Oc3ccccc3)cc2)CCC1 (stereo not drawn) [Example 24, [1-(4-phenoxyphenyl)cyclobutyl](pyridin-2-yl)methanol]		
1100 to 5000	21	1.3	OC(c1ccccn1)C1(c2ccc(Cc3ccccc3)cc2)CCC1 (stereo not drawn) [Example 25, [1-(4-benzylphenyl)cyclobutyl](pyridin-2-yl)methanol]		
50 to 500	6.3	1.0	O[C@H](c1ccccn1)C1(c2ccc(Cl)c(Cl)c2)CCC1 [Example 26, (S)-[1-(3,4-dichlorophenyl)cyclobutyl](pyridin-2-yl)methanol]		
1100 to 5000	5.3	45	O[C@H](c1ccccn1)C1(c2ccc(C(F)(F)F)c(F)c2)CCC1 [Example 29, (S)-{1-[3-fluoro-4-(trifluoromethyl)phenyl]cyclobutyl}(pyridin-2-yl)-methanol]		
